Data as given in patent publication US20250382305A1 (PTC THERAPEUTICS, INC., priority 2022, published 2025).

Experiments:
[1] = system: Total ATXN3 (tATXN3) protein; test: Endogenous Total ATXN3 (tATXN3) Protein Assay (MSD immunoassay of cell lysates); assay type: cell-based; details: average IC50, total ATXN3 protein in cell lysate after 48 h with compound (Table 1)
Summary of the method: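 Cells in DMEM/10% FBS were plated at 10,000 per well onto 7-point, 3.16-fold compound dilutions in duplicate for 48 h at 37° C, then lysed. Total ATXN3 in lysates was measured by MSD sandwich immunoassay: mouse anti-ATXN3 capture, rabbit anti-ATXN3 detection, SULFO-TAG anti-rabbit. Average IC50 was reported in star bins.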

ATXN3 pre-mRNA = test: RT-qPCR Assay to Quantify Exon 4 Skipping in ATXN3 pre-mRNA in Cells; assay type: cell-based; details: percent exon 4 skipping in ATXN3 pre-mRNA, RT-qPCR of cell lysates; average IC50
Summary of the method: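 Cells plated at 10,000/well onto a 7-point, 3.16-fold DMSO dilution series (duplicates), incubated 24 h at 37 °C, then lysed. Exon 4 skipping measured by one-step RT-qPCR (48 °C RT, 40 cycles); IC50 interpolated from dose-response fit of percent skipping.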

Row | SMILES | IC50 [1] | IC50 (ATXN3 pre-mRNA)
1 | N[C@H]1CCCN(c2ccccc2)[C@H]1c1sc2c(NCc3cccs3)cc(Cl)nc2c1Br (racemic) [Compound 125, 2-((2R,3S)-3-amino-1-phenylpiperidin-2-yl)-3-bromo-5-chloro-N-(thiophen-2-ylmethyl)thieno[3,2-b]pyridin-7-amine and 2-((2S,3R)-3-amino-1-phenylpiperidin-2-yl)-3-bromo-5-chloro-N-(thiophen-2-ylmethyl)thieno[3,2-b]pyridin-7-amine] | > 1000 nM | > 1000 nM
2 | N[C@@H]1CC=CC[C@@H]1c1sc2c(NCc3cccs3)cc(Cl)nc2c1Br.N[C@H]1CC=CC[C@H]1c1sc2c(NCc3cccs3)cc(Cl)nc2c1Br (racemic) [Compound 144, 2-((1S,6RS)-6-aminocyclohex-3-en-1-yl)-3-bromo-5-chloro-N-(thiophen-2-ylmethyl)thieno[3,2-b]pyridin-7-amine and 2-((1R,6SR)-6-aminocyclohex-3-en-1-yl)-3-bromo-5-chloro-N-(thiophen-2-ylmethyl)thieno[3,2-b]pyridin-7-amine] | ≤ 30 nM | ≤ 30 nM
3 | N[C@H]1CCCC[C@@H]1c1sc2c(NCc3cccs3)cc(Cl)nc2c1Cl (single isomer, unassigned) [Compound 34, 2-((1S,2S)-2-aminocyclohexyl)-3,5-dichloro-N-(thiophen-2-ylmethyl)thieno[3,2-b]pyridin-7-amine or 2-((1R,2R)-2-aminocyclohexyl)-3,5-dichloro-N-(thiophen-2-ylmethyl)thieno[3,2-b]pyridine-7-amine] | ≤ 30 nM | ≤ 30 nM
4 | N[C@@H]1CCCC[C@H]1c1sc2c(NCc3cccs3)cc(Cl)nc2c1Cl (single isomer, unassigned) [Compound 36, 2-((1R,2R)-2-aminocyclohexyl)-3,5-dichloro-N-(thiophen-2-ylmethyl)thieno[3,2-b]pyridin-7-amine or 2-((1S,2S)-2-aminocyclohexyl)-3,5-dichloro-N-(thiophen-2-ylmethyl)thieno[3,2-b]pyridine-7-amine] | > 1000 nM | > 1000 nM
5 | CCc1c([C@@H]2CCCC[C@H]2N)sc2c(NCc3cccs3)cc(Cl)nc12 (single isomer, unassigned) [Compound 39, 2-((1R,2R)-2-aminocyclohexyl)-5-chloro-3-ethyl-N-(thiophen-2-ylmethyl)thieno[3,2-b]pyridin-7-amine or 2-((1S,2S)-2-aminocyclohexyl)-5-chloro-3-ethyl-N-(thiophen-2-ylmethyl)thieno[3,2-b]pyridine-7-amine] | > 1000 nM | > 1000 nM
6 | CCc1c([C@H]2CCCC[C@@H]2N)sc2c(NCc3cccs3)cc(Cl)nc12 (single isomer, unassigned) [Compound 40, 2-((1S,2S)-2-aminocyclohexyl)-5-chloro-3-ethyl-N-(thiophen-2-ylmethyl)thieno[3,2-b]pyridin-7-amine or 2-((1R,2R)-2-aminocyclohexyl)-5-chloro-3-ethyl-N-(thiophen-2-ylmethyl)thieno[3,2-b]pyridin-7-amine] | 30 to 300 nM | 30 to 300 nM
7 | N[C@@H]1CCCO[C@H]1c1sc2c(NCc3ccco3)nc(Cl)nc2c1Br (single isomer, unassigned) [Compound 42, 6-((2R,3R)-3-aminotetrahydro-2H-pyran-2-yl)-7-bromo-2-chloro-N-(furan-2-ylmethyl)thieno[3,2-d]pyrimidin-4-amine or 6-((2S,3S)-3-aminotetrahydro-2H-pyran-2-yl)-7-bromo-2-chloro-N-(furan-2-ylmethyl)thieno[3,2-d]pyrimidin-4-amine] | 300 to 1000 nM | 300 to 1000 nM
8 | Cc1c([C@@H]2OCCC[C@H]2N)sc2c(NCc3cccs3)cc(Cl)nc12 (single isomer, unassigned) [Compound 44, 2-((2R,3R)-3-aminotetrahydro-2H-pyran-2-yl)-5-chloro-3-methyl-N-(thiophen-2-ylmethyl)thieno[3,2-b]pyridin-7-amine or 2-((2S,3S)-3-aminotetrahydro-2H-pyran-2-yl)-5-chloro-3-methyl-N-(thiophen-2-ylmethyl)thieno[3,2-b]pyridin-7-amine] | > 1000 nM | > 1000 nM
9 | Cc1c([C@@H]2OCCC[C@H]2N)sc2c(NCc3cccs3)cc(Cl)nc12 (single isomer, unassigned) [Compound 45, 2-((2R,3R)-3-aminotetrahydro-2H-pyran-2-yl)-5-chloro-3-methyl-N-(thiophen-2-ylmethyl)thieno[3,2-b]pyridin-7-amine or 2-((2S,3S)-3-aminotetrahydro-2H-pyran-2-yl)-5-chloro-3-methyl-N-(thiophen-2-ylmethyl)thieno[3,2-b]pyridin-7-amine] | ≤ 30 nM | ≤ 30 nM
10 | CCc1c([C@@H]2CCCCC[C@H]2N)sc2c(NCc3cccs3)cc(Cl)nc12 (single isomer, unassigned) [Compound 86, 2-((1R,2R)-2-aminocycloheptyl)-5-chloro-3-ethyl-N-(thiophen-2-ylmethyl)thieno[3,2-b]pyridin-7-amine or 2-((1S,2S)-2-aminocycloheptyl)-5-chloro-3-ethyl-N-(thiophen-2-ylmethyl)thieno[3,2-b]pyridin-7-amine] | > 1000 nM | > 1000 nM
11 | CCc1c([C@H]2CCCCC[C@@H]2N)sc2c(NCc3cccs3)cc(Cl)nc12 (single isomer, unassigned) [Compound 87, 2-((1S,2S)-2-aminocycloheptyl)-5-chloro-3-ethyl-N-(thiophen-2-ylmethyl)thieno[3,2-b]pyridin-7-amine or 2-((1R,2R)-2-aminocycloheptyl)-5-chloro-3-ethyl-N-(thiophen-2-ylmethyl)thieno[3,2-b]pyridin-7-amine] | 30 to 300 nM | 30 to 300 nM
12 | N[C@H]1CCC[C@@H]1c1sc2c(NCc3cccs3)cc(Cl)nc2c1Cl [Compound 1, 2-((1S,2S)-2-aminocyclopentyl)-3,5-dichloro-N-(thiophen-2-ylmethyl)thieno[3,2-b]pyridin-7-amine] | ≤ 30 nM | ≤ 30 nM
13 | N[C@@H]1CCC[C@H]1c1sc2c(NCc3cccs3)cc(Cl)nc2c1Cl [Compound 2, 2-((1R,2R)-2-aminocyclopentyl)-3,5-dichloro-N-(thiophen-2-ylmethyl)thieno[3,2-b]pyridin-7-amine] | > 1000 nM | > 1000 nM
14 | CCc1c([C@H]2CCC[C@@H]2N)sc2c(NCc3cccs3)cc(Cl)nc12 [Compound 11, 2-((1S,2S)-2-aminocyclopentyl)-5-chloro-3-ethyl-N-(thiophen-2-ylmethyl)thieno[3,2-b]pyridin-7-amine] | 300 to 1000 nM | 30 to 300 nM
15 | CCc1c([C@@H]2CCC[C@H]2N)sc2c(NCc3cccs3)cc(Cl)nc12 [Compound 12, 2-((1R,2R)-2-aminocyclopentyl)-5-chloro-3-ethyl-N-(thiophen-2-ylmethyl)thieno[3,2-b]pyridin-7-amine] | > 1000 nM | > 1000 nM
16 | N[C@H]1CCCC[C@H]1c1sc2c(NCc3cccs3)cc(Cl)nc2c1Cl [Compound 13, 2-((1R,2S)-2-aminocyclohexyl)-3,5-dichloro-N-(thiophen-2-ylmethyl)thieno[3,2-b]pyridin-7-amine] | 30 to 300 nM | 30 to 300 nM
17 | N[C@@H]1CCCC[C@@H]1c1sc2c(NCc3cccs3)cc(Cl)nc2c1Cl [Compound 14, 2-((1S,2R)-2-aminocyclohexyl)-3,5-dichloro-N-(thiophen-2-ylmethyl)thieno[3,2-b]pyridin-7-amine] | > 1000 nM | > 1000 nM

Further lines, results first:

Row | IC50 [1] | IC50 (ATXN3 pre-mRNA) | SMILES
18 | > 1000 nM | > 1000 nM | N[C@@H]1CCC[C@@H]1c1sc2c(NCc3cccs3)cc(Cl)nc2c1Cl [Compound 3, 2-((1S,2R)-2-aminocyclopentyl)-3,5-dichloro-N-(thiophen-2-ylmethyl)thieno[3,2-b]pyridin-7-amine]
19 | 30 to 300 nM | 30 to 300 nM | N[C@H]1CCC[C@H]1c1sc2c(NCc3cccs3)cc(Cl)nc2c1Cl [Compound 4, 2-((1R,2S)-2-aminocyclopentyl)-3,5-dichloro-N-(thiophen-2-ylmethyl)thieno[3,2-b]pyridin-7-amine]
20 | > 1000 nM | > 1000 nM | Cc1c([C@@H]2CCC[C@H]2N)sc2c(NCc3cccs3)cc(Cl)nc12 [Compound 5, 2-((1R,2R)-2-aminocyclopentyl)-5-chloro-3-methyl-N-(thiophen-2-ylmethyl)thieno[3,2-b]pyridin-7-amine]
21 | 30 to 300 nM | 30 to 300 nM | Cc1c([C@H]2CCC[C@@H]2N)sc2c(NCc3cccs3)cc(Cl)nc12 [Compound 6, 2-((1S,2S)-2-aminocyclopentyl)-5-chloro-3-methyl-N-(thiophen-2-ylmethyl)thieno[3,2-b]pyridin-7-amine]
22 | 300 to 1000 nM | 300 to 1000 nM | N[C@@H]1CCC[C@H]1c1sc2c(NCc3cccs3)cc(Cl)nc2c1Br [Compound 7, 2-((1R,2R)-2-aminocyclopentyl)-3-bromo-5-chloro-N-(thiophen-2-ylmethyl)thieno[3,2-b]pyridin-7-amine]
23 | ≤ 30 nM | ≤ 30 nM | N[C@H]1CCC[C@@H]1c1sc2c(NCc3cccs3)cc(Cl)nc2c1Br [Compound 8, 2-((1S,2S)-2-aminocyclopentyl)-3-bromo-5-chloro-N-(thiophen-2-ylmethyl)thieno[3,2-b]pyridin-7-amine]
24 | > 1000 nM | 300 to 1000 nM | N[C@@H]1CCC[C@@H]1c1cc2nc(Cl)cc(NCc3cccs3)c2s1 [Compound 9, 2-((1S,2R)-2-aminocyclopentyl)-5-chloro-N-(thiophen-2-ylmethyl)thieno[3,2-b]pyridin-7-amine]
25 | 300 to 1000 nM | 300 to 1000 nM | N[C@H]1CCC[C@@H]1c1cc2nc(Cl)cc(NCc3cccs3)c2s1 [Compound 10, 2-((1S,2S)-2-aminocyclopentyl)-5-chloro-N-(thiophen-2-ylmethyl)thieno[3,2-b]pyridin-7-amine]
